For 8 molecules, IC50 results are on record in patent publication US20250179077A1, “QUINAZOLINE COMPOUNDS AND USES THEREOF AS INHIBITORS OF MUTANT KRAS PROTEINS” (AMGEN INC., priority 2022, published 2025).

The pIC50 is the negative decadic logarithm of the IC50, by convention in mol/L. One may read the IC50 as the concentration needed to halve the response being measured.

For assay [1], the target named is His-tagged KRAS G12D protein (Homo sapiens, UniProt P01116, G12D). Kind of assay: KRAS G12D TR-FRET Assay. It counts as binding. The method, boiled down: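 His-KRAS G12D (20 nM) was preincubated with titrated compound for 30 min at RT in HEPES pH 7.4 buffer with MgCl2, 10 μM GDP. Biotin-KRPep-2d (20 nM) was then added for 1 h, followed by Eu-anti-His/streptavidin-d2 for 1 h. The 665/615 nm TR-FRET ratio was fitted 4-parameter to give IC50.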
(In general: In TR-FRET formats the signal depends on donor and acceptor labels being close together.)

Assay [2] has as its system Phosphorylation of ERK1/2 in AsPC-1 cells. Kind of assay: Phospho-ERK1/2 MSD Assay. It counts as cell-based. The note with it: Homo sapiens, ASPC1, 2 h, read-out: 2 h p-ERK (AsPC-1 cells), IC50, AsPC-1 cells, 2 h compound treatment. An outline of the steps: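 Phospho-ERK1/2 was quantified by MSD whole-cell lysate immunoassay in RIPA lysates made with protease/phosphatase inhibitors. A 4-parameter logistic model gave IC50.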

Assay [3] has as its target GDP-bound KRAS protein (aa 1-169), containing both G12D and C118A amino acid substitutions (Homo sapiens, UniProt P01116, C118A/G12D). Put plainly: KRAS G12D Coupled Nucleotide Exchange Assay. Format: biochemical. The method, then: KRAS G12D Coupled Nucleotide Exchange Assay
Following compound pre-incubation, purified SOS protein (aa 564-1049) and GTP (Roche 10106399001) were added to the assay wells and incubated for an additional 30 min. […] The assay plates were then read on a PerkinElmer EnVision Multilabel Reader, using AlphaScreen® technology, and data were analyzed using a 4-parameter logistic model to calculate IC50 values.

pIC50: −log10 of the molar value.

Sequence of GDP-bound KRAS protein (aa 1-169), containing both G12D and C118A amino acid substitutions (P01116 1-169 isoform P01116-2 G12D/C118A): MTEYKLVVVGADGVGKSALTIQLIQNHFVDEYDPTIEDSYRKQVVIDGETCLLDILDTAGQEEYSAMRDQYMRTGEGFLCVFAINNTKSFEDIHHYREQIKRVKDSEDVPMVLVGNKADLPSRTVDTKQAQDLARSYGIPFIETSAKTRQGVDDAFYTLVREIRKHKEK
Sequence of His-tagged KRAS G12D protein (P01116 1-188 isoform P01116-2 G12D): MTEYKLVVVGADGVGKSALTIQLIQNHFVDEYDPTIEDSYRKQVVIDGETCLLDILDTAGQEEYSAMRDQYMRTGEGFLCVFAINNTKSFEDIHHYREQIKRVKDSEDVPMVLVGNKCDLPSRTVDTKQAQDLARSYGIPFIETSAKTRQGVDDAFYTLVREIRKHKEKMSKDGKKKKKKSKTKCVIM

As to `N#Cc1cc2c(N3CCCOCC3)nc(OC[C@@]34CCCN3C[C@H](F)C4)nc2c(F)c1-c1cc(O)cc2ccccc12` [Example 44, 8-Fluoro-2-(((2R,7aS)-2-fluorotetrahydro-1H-pyrrolizin-7a(5H)-yl)methoxy)-7-(3-hydroxynaphthalen-1-yl)-4-(1,4-oxazepan-4-yl)quinazoline-6-carbonitrile], the values for the pIC50 in assay [1] and in assay [2] were 7.30 and 5.73, respectively. Also, in assay [3], the IC50 was determined as 0.028 µM.

Regarding `CCc1cccc2cc(O)cc(-c3c(C#N)cc4c(N5CCCOCC5)nc(OC[C@@]56CCCN5C[C@H](F)C6)nc4c3F)c12` [Example 45, 7-(8-Ethyl-3-hydroxynaphthalen-1-yl)-8-fluoro-2-(((2R,7aS)-2-fluorotetrahydro-1H-pyrrolizin-7a(5H)-yl)methoxy)-4-(1,4-oxazepan-4-yl)quinazoline-6-carbonitrile], the pIC50 in assay [1] is 7.92; in assay [2] it was 6.28. For the same molecule, the IC50 in assay [3] is on record as 0.007 µM.

Consider `CCc1c(F)ccc2cc(O)cc(-c3c(N)cc4c(N5CCCOCC5)nc(OC[C@@]56CCCN5C[C@H](F)C6)nc4c3F)c12` [Example 46, 4-(6-Amino-8-fluoro-2-(((2R,7aS)-2-fluorotetrahydro-1H-pyrrolizin-7a(5H)-yl)methoxy)-4-(1,4-oxazepan-4-yl)quinazolin-7-yl)-5-ethyl-6-fluoronaphthalen-2-ol], for which the pIC50 was 7.10 in assay [1] and 5.59 in assay [2]. Besides, the IC50 in assay [3] amounted to 0.036 µM.

With `C#Cc1c(F)ccc2cc(O)cc(-c3ccc4c(N5CCC[C@@](C)(O)C5)nc(OC[C@@]56CCCN5C[C@H](F)C6)nc4c3F)c12` [Example 47, (R)-1-(7-(8-Ethynyl-7-fluoro-3-hydroxynaphthalen-1-yl)-8-fluoro-2-(((2R,7aS)-2-fluorotetrahydro-1H-pyrrolizin-7a(5H)-yl)methoxy)quinazolin-4-yl)-3-methylpiperidin-3-ol], the pIC50 in assay [1] is 8.40; in assay [2], 7.68. Also, in assay [3], the IC50 stood at 0.004 µM.

For `C#Cc1cccc2cc(O)cc(-c3ccc4c(N5CCC[C@@](C)(O)C5)nc(OC[C@@]56CCCN5C[C@H](F)C6)nc4c3F)c12` [Example 50, (R)-1-(7-(8-Ethynyl-3-hydroxynaphthalen-1-yl)-8-fluoro-2-(((2R,7a.S)-2-fluorotetrahydro-1H-pyrrolizin-7a(5H)-yl)methoxy)quinazolin-4-yl)-3-methylpiperidin-3-ol], the pIC50 in assay [1] is 8.52; in assay [2], 7.64. The same molecule returned an IC50 in assay [3] of 0.003 µM.

`CCc1c(F)ccc2cc(O)cc(-c3ccc4c(N5CCCC6(CC(=O)N6)C5)nc(OC[C@@]56CCCN5C[C@H](F)C6)nc4c3F)c12` (stereo partly drawn) [Example 51, 6-(7-(8-Ethyl-7-fluoro-3-hydroxynaphthalen-1-yl)-8-fluoro-2-(((2R,7aS)-2-fluorotetrahydro-1H-pyrrolizin-7a(5H)-yl)methoxy)quinazolin-4-yl)-1,6-diazaspiro[3.5]nonan-2-one]: the figures for the negative logarithm of the IC50 (pIC50) in assay [1] and in assay [2] were 8.52 and 7.33, respectively. The molecule also had an IC50 in assay [3] of 0.004 µM.

Regarding `CCc1c(F)ccc2cc(O)cc(-c3ccc4c(N5CCCC6(CNC6=O)C5)nc(OC[C@@]56CCCN5C[C@H](F)C6)nc4c3F)c12` (stereo partly drawn) [Example 52, 6-(7-(8-Ethyl-7-fluoro-3-hydroxynaphthalen-1-y1)-8-fluoro-2-(((2R,7a.S)-2-fluorotetrahydro-1H-pyrrolizin-7a(5H)-yl)methoxy)quinazolin-4-yl)-2,6-diazaspiro[3.5]nonan-1-one], the pIC50 was 8.00 in assay [1] and 6.75 in assay [2]. For the same molecule, the IC50 in assay [3] turned out to be 0.007 µM.

For `CCc1c(F)ccc2cc(O)cc(-c3ccc4c(N5CCCC6(CNC(=O)C6)C5)nc(OC[C@@]56CCCN5C[C@H](F)C6)nc4c3F)c12` (stereo partly drawn) [Example 53, 7-(7-(8-Ethyl-7-fluoro-3-hydroxynaphthalen-1-yl)-8-fluoro-2-(((2R,7aS)-2-fluorotetrahydro-1H-pyrrolizin-7a(5H)-yl)methoxy)quinazolin-4-yl)-2,7-diazaspiro[4.5]decan-3-one], the figures for the pIC50 in assay [1] and in assay [2] were 8.52 and 6.60, respectively. In addition, in assay [3], the half-inhibitory concentration (IC50) was found to be 0.007 µM.
